Results on eight compounds are retold here after patent US20240270762A1, “PENICILLIN-BINDING PROTEIN INHIBITORS” (priority 2021, published 2024).

pEC50, pIC50: −log10 of the molar value. Values after ≈ are worked out from the molar mass of the structure shown. Read-outs that look alike come from different tables or passages of the source.

For assay [1], the system named is P. aeruginosa (ΔmexAB-oprM). Put plainly: Broth microdilution MIC in iron-depleted CAMHB (IDM). Format: cell-based. As to conditions: Pseudomonas aeruginosa; iron-depleted CAMHB (IDM); […]; read-out: Minimum inhibitory concentration, P. aeruginosa ΔmexAB-oprM.
Assay [2] relates to N. gonorrhoeae WHO K. Put plainly: Liquid broth MIC in Fastidious broth. As to conditions: Neisseria gonorrhoeae.
In assay [3] the target is T1, PBP3 from Escherichia coli (K-12) (Escherichia coli, UniProt P0AD68).
T1 construct: made in house
T1 sequence (P0AD68 1-577): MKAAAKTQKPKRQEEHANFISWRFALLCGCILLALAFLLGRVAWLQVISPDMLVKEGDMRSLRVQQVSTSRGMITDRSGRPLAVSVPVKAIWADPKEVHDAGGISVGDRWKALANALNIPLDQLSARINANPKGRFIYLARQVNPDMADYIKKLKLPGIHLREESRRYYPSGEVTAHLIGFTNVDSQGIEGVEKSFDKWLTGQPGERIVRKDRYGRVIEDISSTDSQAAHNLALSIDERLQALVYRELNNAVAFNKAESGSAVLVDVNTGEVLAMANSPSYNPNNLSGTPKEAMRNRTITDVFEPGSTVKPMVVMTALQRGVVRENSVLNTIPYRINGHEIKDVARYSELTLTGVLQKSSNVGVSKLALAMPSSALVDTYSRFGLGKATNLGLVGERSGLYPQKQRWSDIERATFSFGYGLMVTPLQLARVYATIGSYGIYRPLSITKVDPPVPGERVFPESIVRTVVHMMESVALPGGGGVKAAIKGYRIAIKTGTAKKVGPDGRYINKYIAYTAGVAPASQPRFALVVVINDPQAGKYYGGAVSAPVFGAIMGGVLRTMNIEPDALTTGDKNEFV
The assay can be described thus: Bocillin-FL fluorescence polarization competition binding, E. coli PBP3. The essentials: (§1)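 Purified PBPs pre-incubated with inhibitor (E. coli PBP3 1.5 μM, 30 min; P. aeruginosa PBP3 0.75 μM, A. baumannii PBP1a 1 μM and PBP3 0.2 μM, 15 min), then Bocillin-FL 0.1 μM (0.05 μM for PBP1a) added; FP read up to 60 min. EC50 = concentration halving bound Bocillin-FL.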
On the technique in general: In fluorescence polarisation assays a small probe gives low polarisation when free and higher when bound to something large.

Assay [4] concerns P. aeruginosa ATCC 35151. Put plainly: microbe, parasite or virus in culture. Format: cell-based. As to conditions: Pseudomonas aeruginosa, ATCC35151, read-out: Minimum inhibitory concentration, P. aeruginosa ATCC 35151.
The subject of assay [5] is P. aeruginosa CDC-0054. The assay can be described thus: microbe, parasite or virus in culture. The format is cell-based. As to conditions: Pseudomonas aeruginosa, CDC0054, read-out: Minimum inhibitory concentration, P. aeruginosa CDC-0054.
Assay [6] relates to A. baumannii ATCC 17978. The assay can be described thus: microbe, parasite or virus in culture. The format is cell-based. As to conditions: Acinetobacter baumannii, ATCC17978, read-out: MIC, A. baumannii ATCC 17978.
The subject of assay [7] is N. gonorrhoeae MS11. The assay can be described thus: Liquid broth MIC in Fastidious broth. As to conditions: Neisseria gonorrhoeae.
Assay [8] addresses T2, PBP3 from Acinetobacter baumannii (ATCC 19606) (Acinetobacter baumannii, UniProt A0ABX6CK25).
T2 sequence (A0ABX6CK25 64-610): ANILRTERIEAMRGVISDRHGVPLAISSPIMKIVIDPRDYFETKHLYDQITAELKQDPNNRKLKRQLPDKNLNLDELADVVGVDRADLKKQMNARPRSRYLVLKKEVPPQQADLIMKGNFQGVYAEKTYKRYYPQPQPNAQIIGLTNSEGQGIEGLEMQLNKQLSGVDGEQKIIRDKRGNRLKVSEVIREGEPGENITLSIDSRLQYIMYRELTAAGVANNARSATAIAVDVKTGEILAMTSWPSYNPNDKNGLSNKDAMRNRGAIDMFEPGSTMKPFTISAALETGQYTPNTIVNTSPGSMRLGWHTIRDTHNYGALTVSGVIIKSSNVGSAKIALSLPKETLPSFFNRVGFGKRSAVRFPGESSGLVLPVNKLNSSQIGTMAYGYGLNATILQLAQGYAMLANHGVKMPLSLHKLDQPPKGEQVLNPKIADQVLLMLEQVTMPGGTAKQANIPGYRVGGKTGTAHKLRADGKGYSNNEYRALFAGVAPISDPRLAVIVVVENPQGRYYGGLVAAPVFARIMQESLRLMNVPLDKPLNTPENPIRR
The assay can be described thus: Bocillin-FL fluorescence polarization competition binding, A. baumannii PBP3. The conditions noted are these: fluorescence polarization competition binding assay using Bocillin-FL; read-out: A. baumannii PBP3 Potency. In short, it runs like this: as §1

In assay [9] the test system is N. gonorrhoeae ATCC 49226. The assay can be described thus: Liquid broth MIC in Fastidious broth. The conditions noted are these: Neisseria gonorrhoeae.
Assay [10] deals with N. gonorrhoeae WHO Z. Put plainly: Liquid broth MIC in Fastidious broth. The conditions noted are these: Neisseria gonorrhoeae.
Setting [11] is: read-out: Minimum Inhibitory Concentration, WHO K.
The mark [12] stands for this setting: MS11, read-out: Minimum Inhibitory Concentration, MS11.
The mark [13] stands for this setting: ATCC49226, read-out: Minimum Inhibitory Concentration, ATCC 49226.
[14] abbreviates: read-out: Minimum Inhibitory Concentration, WHO Z.
The mark [15] stands for this setting: read-out: Minimum Inhibitory Concentration (MIC), N. gonorrhoeae WHO K.
Setting [16] is: MS11, read-out: Minimum Inhibitory Concentration (MIC), N. gonorrhoeae MS11.
[17] abbreviates: ATCC49226, read-out: Minimum Inhibitory Concentration (MIC), N. gonorrhoeae ATCC 49226.
Setting [18] is: read-out: Minimum Inhibitory Concentration (MIC), N. gonorrhoeae WHO Z.

The pEC50 is the EC50 on a negative log10 scale, so that one unit is a factor of ten. The low end stands for a high EC50, the high end for a low EC50. As for `O=C(NCCCS(=O)(=O)N1CCN(C(=O)NC(C(=O)N[C@H]2Cc3ccc(F)c(C(=O)O)c3OB2O)c2cc(F)c(O)c(O)c2Cl)C1=O)Nc1ccc(O)cc1` (stereo partly drawn) [Example 276, (3R)-3-(2-(2-chloro-5-fluoro-3,4-dihydroxyphenyl)-2-(3-((3-(3-(4-hydroxyphenyl)ureido)propyl)sulfonyl)-2-oxoimidazolidine-1-carboxamido)acetamido)-7-fluoro-2-hydroxy-3,4-dihydro-2H-benzo[e][1,2]oxaborinine-8-carboxylic acid], the MIC in assay [1] is under 1 µg/mL; in assay [2] (setting [11]), over 64 µg/mL; in assay [4] it was under 1 µg/mL; in assay [5], 8 to 16 µg/mL (≈ 9.87 to 19.7 µM); in assay [6] it was under 1 µg/mL; in assay [7] (setting [12]) it was 16 to 32 µg/mL (≈ 19.7 to 39.5 µM). The MIC lay in the range of 16 to 32 µg/mL (≈ 19.7 to 39.5 µM) in [9] (setting [13]) and 4 to 8 µg/mL (≈ 4.93 to 9.87 µM) in assay [10] (setting [14]). Besides, in assay [3], the pEC50 was over 5.00. Further, in assay [8], the pIC50 is over 5.00.
`O=C(NCCCN1CCN(C(=O)NC(C(=O)N[C@H]2Cc3ccc(F)c(C(=O)O)c3OB2O)c2cc(F)c(O)c(O)c2Cl)C(=O)C1=O)c1cccc(O)c1` (stereo partly drawn) [Example 204, (3R)-3-(2-(2-chloro-5-fluoro-3,4-dihydroxyphenyl)-2-(4-(3-(3-hydroxybenzamido)propyl)-2,3-dioxopiperazine-1-carboxamido)acetamido)-7-fluoro-2-hydroxy-3,4-dihydro-2H-benzo[e][1,2]oxaborinine-8-carboxylic acid]: the MIC in [1] is under 1 µg/mL; in assay [2] (setting [15]) it was over 64 µg/mL; in assay [4], under 1 µg/mL; in [5], under 1 µg/mL; in assay [6] it was under 1 µg/mL; in assay [7] (setting [16]), 16 to 32 µg/mL (≈ 21.1 to 42.1 µM). Besides, the MIC in [9] (setting [17]) and in assay [10] (setting [18]) was 16 to 32 µg/mL (≈ 21.1 to 42.1 µM) each time. The same compound gave a negative-log EC50 (pEC50) in [3] of over 5.00. Also, the pIC50 in assay [8] was over 5.00.
On to `O=C(O)c1c(F)ccc2c1OB(O)[C@@H](NC(=O)C(NC(=O)N1CCN(S(=O)(=O)CCNC(=O)[C@@H]3CCCN3)C1=O)c1cc(F)c(O)c(O)c1Cl)C2` (stereo partly drawn) [Example 265, (3R)-3-(2-(2-chloro-5-fluoro-3,4-dihydroxyphenyl)-2-(2-oxo-3-((2-((S)-pyrrolidine-2-carboxamido)ethyl)sulfonyl)imidazolidine-1-carboxamido)acetamido)-7-fluoro-2-hydroxy-3,4-dihydro-2H-benzo[e][1,2]oxaborinine-8-carboxylic acid], for which the MIC in assay [1] is under 1 µg/mL; in assay [2] (setting [11]), over 64 µg/mL; in assay [4] it was under 1 µg/mL; in assay [5], 2 to 4 µg/mL (≈ 2.64 to 5.27 µM); in [6], under 1 µg/mL; in assay [7] (setting [12]) it was 16 to 32 µg/mL (≈ 21.1 to 42.2 µM). Also, the MIC is 16 to 32 µg/mL (≈ 21.1 to 42.2 µM) in assay [9] (setting [13]) and 4 to 8 µg/mL (≈ 5.27 to 10.5 µM) in [10] (setting [14]). For the same compound, in [3], the negative logarithm of the EC50 (pEC50) was 4.30 to 5.00. The pIC50 in [8] was over 5.00.
For the compound `O=C(NCCN1CCN(C(=O)NC(C(=O)N[C@H]2Cc3ccc(F)c(C(=O)O)c3OB2O)c2cc(F)c(O)c(O)c2Cl)C(=O)C1=O)c1ccc(O)cc1` (stereo partly drawn) [Example 214, (3R)-3-(2-(2-chloro-5-fluoro-3,4-dihydroxyphenyl)-2-(4-(2-(4-hydroxybenzamido)ethyl)-2,3-dioxopiperazine-1-carboxamido)acetamido)-7-fluoro-2-hydroxy-3,4-dihydro-2H-benzo[e][1,2]oxaborinine-8-carboxylic acid], the MIC in assay [1] was under 1 µg/mL; in assay [2] (setting [15]), over 64 µg/mL; in assay [4], under 1 µg/mL; in assay [5], 2 to 4 µg/mL (≈ 2.68 to 5.36 µM); in assay [6], under 1 µg/mL; in assay [7] (setting [16]), 16 to 32 µg/mL (≈ 21.5 to 42.9 µM). The MIC in assay [9] (setting [17]) was in the range of 4 to 8 µg/mL (≈ 5.36 to 10.7 µM); in assay [10] (setting [18]), 16 to 32 µg/mL (≈ 21.5 to 42.9 µM). In [3], the pEC50 was over 5.00. The pIC50 in assay [8] is over 5.00.
As to `CN(CCN1CCN(C(=O)N[C@@H](C(=O)N[C@H]2Cc3ccc(F)c(C(=O)O)c3OB2O)c2cc(F)c(O)c(O)c2Cl)C(=O)C1=O)Cc1nccs1` [Example 200, (R)-3-((R)-2-(2-chloro-5-fluoro-3,4-dihydroxyphenyl)-2-(4-(2-(methyl(thiazol-2-ylmethyl)amino)ethyl)-2,3-dioxopiperazine-1-carboxamido)acetamido)-7-fluoro-2-hydroxy-3,4-dihydro-2H-benzo[e][1,2]oxaborinine-8-carboxylic acid], the MIC in assay [1] is under 1 µg/mL; in assay [2] (setting [15]) it was 16 to 32 µg/mL (≈ 21.7 to 43.4 µM); in [4] it was under 1 µg/mL; in assay [5], under 1 µg/mL; in [6], under 1 µg/mL; in assay [7] (setting [16]), 16 to 32 µg/mL (≈ 21.7 to 43.4 µM). Further, the MIC fell in the range of 4 to 8 µg/mL (≈ 5.43 to 10.9 µM) in [9] (setting [17]) and 16 to 32 µg/mL (≈ 21.7 to 43.4 µM) in assay [10] (setting [18]). For the same compound, the pEC50 in assay [3] was 4.30 to 5.00. Further, the pIC50 in assay [8] is over 5.00.
With `O=C(O)c1c(F)ccc2c1OB(O)[C@@H](NC(=O)C(NC(=O)N1CCN(CCNC(=O)[C@@H]3CCCN3)C1=O)c1cc(F)c(O)c(O)c1Cl)C2` (stereo partly drawn) [Example 248, (3R)-3-(2-(2-chloro-5-fluoro-3,4-dihydroxyphenyl)-2-(2-oxo-3-(2-((S)-pyrrolidine-2-carboxamido)ethyl)imidazolidine-1-carboxamido)acetamido)-7-fluoro-2-hydroxy-3,4-dihydro-2H-benzo[e][1,2]oxaborinine-8-carboxylic acid], the MIC in assay [1] is under 1 µg/mL; in [2] (setting [11]), 16 to 32 µg/mL (≈ 23 to 46.1 µM); in [4], under 1 µg/mL; in assay [5], 2 to 4 µg/mL (≈ 2.88 to 5.76 µM); in assay [6], under 1 µg/mL; in assay [7] (setting [12]), 16 to 32 µg/mL (≈ 23 to 46.1 µM). Moreover, the MIC in assay [9] (setting [13]) and in assay [10] (setting [14]) was 16 to 32 µg/mL (≈ 23 to 46.1 µM) in each case. Further, the pEC50 in [3] is 4.30 to 5.00. For the same compound, the pIC50 in assay [8] was over 5.00.
On to `O=C(NCCCS(=O)(=O)N1CCN(C(=O)NC(C(=O)N[C@H]2Cc3ccc(F)c(C(=O)O)c3OB2O)c2cc(F)c(O)c(O)c2Cl)C1=O)c1ccc(O)cc1` (stereo partly drawn) [Example 269, (3R)-3-(2-(2-chloro-5-fluoro-3,4-dihydroxyphenyl)-2-(3-((3-(4-hydroxybenzamido)propyl)sulfonyl)-2-oxoimidazolidine-1-carboxamido)acetamido)-7-fluoro-2-hydroxy-3,4-dihydro-2H-benzo[e][1,2]oxaborinine-8-carboxylic acid], for which the MIC in [1] was under 1 µg/mL; in [2] (setting [11]) it was over 64 µg/mL; in assay [4], under 1 µg/mL; in assay [5], 2 to 4 µg/mL (≈ 2.51 to 5.03 µM); in assay [6] it was under 1 µg/mL; in assay [7] (setting [12]), 16 to 32 µg/mL (≈ 20.1 to 40.2 µM). Besides, the MIC in assay [9] (setting [13]) and in [10] (setting [14]) was 16 to 32 µg/mL (≈ 20.1 to 40.2 µM) throughout. In assay [3], the pEC50 was over 5.00. Besides, in assay [8], the pIC50 was over 5.00.
For `O=C(O)c1c(F)ccc2c1OB(O)[C@@H](NC(=O)[C@H](NC(=O)N1CCN(CCNC(=O)[C@@H]3CCCN3)C(=O)C1=O)c1cc(F)c(O)c(O)c1Cl)C2` [Example 229, (R)-3-((R)-2-(2-chloro-5-fluoro-3,4-dihydroxyphenyl)-2-(2,3-dioxo-4-(2-((S)-pyrrolidine-2-carboxamido)ethyl)piperazine-1-carboxamido)acetamido)-7-fluoro-2-hydroxy-3,4-dihydro-2H-benzo[e][1,2]oxaborinine-8-carboxylic acid], the MIC in [1] is under 1 µg/mL; in assay [2] (setting [15]), 16 to 32 µg/mL (≈ 22.1 to 44.3 µM); in assay [4] it was under 1 µg/mL; in assay [5], 2 to 4 µg/mL (≈ 2.77 to 5.53 µM); in assay [6], under 1 µg/mL; in assay [7] (setting [16]), 16 to 32 µg/mL (≈ 22.1 to 44.3 µM). The MIC in assay [9] (setting [17]) and in [10] (setting [18]) was 16 to 32 µg/mL (≈ 22.1 to 44.3 µM) throughout. This compound showed a negative-log EC50 (pEC50) in assay [3] of 4.30 to 5.00. The pIC50 in assay [8] is over 5.00.
